Experimental data: patent publication US20180325157A1, “A DIETARY SUPPLEMENT COMPRISING BETA-GLUCAN AND CASEIN HYDROLSATE FOR IMPROVING HEALTH AND GROWTH PERFORMANCE IN A MAMMAL” (University College Dublin, National University of Ireland, …, priority 2015, published 2018)
“And” between values parts separate entries of the source, which are not always exact repeats. Equal values may be shown once.

Experiments:
[1] = test system: selected panel of bacterial groups; experiment: qPCR of the other selected bacterial groups in colonic digesta; assay type: in vivo, pig; settings: day 12
Procedure: (§1) At day 12, all the pigs were sacrificed following a lethal injection of Euthatal (pentobarbitone sodium BP-Merial Animal Ltd, Sandringham House, Essex, UK) at a rate of […] live body weight. In sterile conditions, the digestive tract was removed and tissue samples from colon were placed in sterile phosphate buffer saline (PBS) (Oxoid, Basingstoke, UK). The digesta samples were recovered aseptically from caecum and colon and transported on ice to proper storage conditions.
(§2) To evaluate the effect of feed additives on the microbiota, samples of digesta contents (approximately 10 g) were recovered from the caecum and colon of each animal in sterile conditions immediately after slaughter. […] Quantity and quality of DNA were assessed using a Nanodrop (Nanodrop, ND1000; Thermo Scientific, Wilmington, Del.).
(§3) A combined aliquot of bacterial genomic DNA from all animals were used for preparation of standard curves. […] Thermal cycling conditions used were similar to the condition described below for quantitative real-time PCR. Standard curves were subsequently generated by quantitative real-time PCR of serial dilutions of these amplicons using the same genus and species-specific primers to permit absolute quantification based on gene copy number (Lee et al., 2006). […] The dry matter (DM) of the digesta was determined after drying overnight at 103° C. […]

Bacteroidetes = experiment: qPCR of bacterial groups in digesta: Bacteroidetes; assay type: in vivo, pig; settings: caecal digesta, day 12
Procedure: as §1, §2, §3

TGF-β = experiment: Cytokine gene expression in colonic tissue (qPCR): TGF-β; assay type: in vivo, porcine; settings: day 12, normalised relative quantity
Procedure: (§4) Tissue samples were collected from the mesenteric side of the colon, rinsed with ice-cold sterile phosphate-buffered saline (Oxoid, Basingstoke, UK) and stripped of overlying smooth muscle. The samples were then cut into small pieces using a sterile scalpel blade and stored in 15 ml of RNAlater™ (Applied biosystems, Foster city, CA, USA) overnight followed by storage at −20° C. prior to RNA extraction. Total RNA was extracted from the colonic tissue samples using a GenElute Mammalian Total RNA Miniprep Kit (Sigma-Aldrich Corporation, St Louis, Mo., USA) according to the manufacturer's instructions. […] The total RNA was quantified and assessed for purity using the NanoDrop-ND1000 Spectrophotometer (Thermo Fisher Scientific Inc. MA, USA). The quality of the total RNA was determined by visualizing on an ethidium bromide stained 1% agarose gel. […]
(§5) qPCR was carried out to quantify the following two sets of targets: the first set of target are a selected panel of cytokine genes; Interleukins (IL-1a, IL-1β, IL-4, IL-6, IL-8, IL-10, IL-17A, IL-21), Interferon (IFN-γ), Tumor Necrosis Factor (TNFα), Transforming growth factor (TGF-β) and Forkhead box P3 (FOXP3). […]
(§6) Mean Ct values were converted to relative quantities using the formula, Relative quantity=(PCR efficiency) ΔCt, where ΔCt is the change in the Ct values of the sample relative to the highest expression (minimum Ct value). […]

weaning piglets = experiment: Body weight and growth performance of weaned piglets over 12 days; assay type: in vivo, pig
Source text: This study was designed in a completely randomized block design with 5 dietary groups. The dietary groups are as follows: 1) control diet, 2) control diet+ZnO, 3) control diet+casein hydrolysate, 4) control diet+(3 glucan and 5) control diet+casein hydrolysate+β glucan. The control diet used in this study was based on previous work by Walsh et al. (2013). The levels of casein hydrolysate used were based on previous experiment and the levels of β glucan, derived from yeast (S. cerevisiae), used were based on a previous study by Sweeney et al. (2012). Diets were formulated to contain similar concentrations of digestible energy (DE) (14.5 MJ/kg) and standardized ileal digestible (SID) lysine (12.5 g/kg) contents. All amino acids requirements were met relative to SID lysine (NRC, 1998). All diets were milled on site and fed in meal form for 12 days after weaning.
Forty weaned piglets [progeny of Landrace boars×(Large White×Landrace sow)] were weighed and blocked on the basis of initial live body weight (7.3±0.2 kg) and assigned to 1 of the 5 dietary treatment groups (n=8). Piglets were weighted individually at the beginning of the experiment (day 0=day of weaning), day 6 and day 12. The piglets were housed in groups of two on fully slatted floors (1.68×1.22 m). The ambient environmental temperature within the house was thermostatically controlled at 30° C. The feed was available ad libitum and water was available via nipple drinkers. Feed was available up to the final weighing and all remaining feed was weighed back for the purpose of calculating feed efficiency.
The current study was a complete randomised design experiment and data analysed using the general linear model procedure of the Statistical Analysis Institute (SAS, 2004). The individual pen represented the experimental unit for the performance analysis. All the data were checked initially for normality using the PROC univariate procedure in SAS (2004). The microbial counts were log transformed before statistical analysis. Probability values of less than 0.05 were used as the criterion for statistical significance. Intercorrelations between cytokines and cytokine regulatory genes was analysed in a correlation matrix using PASW 18 (SPSS for Windows, […]; SPSS, Chicago, Ill.) and the Pearson's r value greater than 0.400 was considered to be positively correlated. All results are presented in the tables as least square means±standard error of the means (SEM).

IL-1α = experiment: Cytokine gene expression in colonic tissue (qPCR): IL-1α; assay type: in vivo, porcine; settings: day 12, normalised relative quantity
Procedure: as §4, §5, §6

IL-1β = experiment: Cytokine gene expression in colonic tissue (qPCR): IL-1β; assay type: in vivo, porcine; settings: day 12, normalised relative quantity
Procedure: as §4, §5, §6

Bifidobacteria spp. = experiment: qPCR of bacterial groups in digesta: Bifidobacteria; assay type: in vivo, pig; settings: day 12
Procedure: as §1, §2, §3

weaning piglet = settings: previous experiments, cited from earlier work
IL-8 = experiment: Cytokine gene expression in colonic tissue (qPCR): IL-8; assay type: in vivo, porcine; settings: day 12, normalised relative quantity
Procedure: as §4, §5, §6

IL-17 = experiment: Cytokine gene expression in colonic tissue (qPCR): IL-17; assay type: in vivo, porcine; settings: day 12, normalised relative quantity
Procedure: as §4, §5, §6

## [O]=[Zn] [ZnO, zinc oxide]
[1]
  bacterial copy numbers of any other bacterial group: No change
Bacteroidetes
  abundance of Bacteroidetes copy numbers: 12.60 log10 bacteria/g DM digesta
TGF-β
  TGF-β expression: 0.183 RQ
Weaning piglets; Day 0-12
  Gain to feed (Day 0-12): 0.26 kg/kg
  OADG (overall average daily gain) (Day 0-12): 0.10 kg/day
  OFI (overall feed intake) (Day 0-12): 0.37 kg/day
Weaning piglets; Weight 0-6
  Weight (kg) Weight 0-6: 7.53 kg
Weaning piglets; Weight 6-12 (end of experiment)
  Weight (kg) Weight 6-12: 8.64 kg and 8.64^a kg
IL-1α
  IL-1α expression: 0.006 RQ
IL-1β
  IL-1β expression: 0.010 RQ
Bifidobacteria spp.; caecal digesta
  Bifidobacteria spp. numbers: 8.94 log10 bacteria/g DM digesta
Bifidobacteria spp.; colonic digesta
  abundance of Bifidobacteria copy numbers: 8.96 log10 bacteria/g DM digesta
Weaning piglet; weaning piglet gut
  anti-inflammatory activity in the weaning piglet gut: anti-inflammatory activity
Weaning piglet; weaning piglet
  overall growth performance parameters: improved
IL-8
  IL-8 expression: 0.003 RQ
IL-17
  IL-17 expression: 0.061 RQ
